Assay [1] deals with C57BL/6J mice with chronic EAE. The assay can be described thus: Guanabenz/interferon co-administration in chronic EAE, onset of clinical symptoms. Format: in vivo, mouse. Particulars: for onset of clinical symptoms: daily from post immunization day 7. An excerpt: Eight week old C57BL/6J female mice were immunized with MOG35-55/CFA to induce chronic EAE. […] Mice were scored daily for clinical symptoms (0=healthy, 1=flaccid tail, 2=ataxia and/or paresis of hindlimbs, 3=paralysis of hindlimbs and/or paresis of forelimbs, 4=tetraparalysis, 5=moribund or death). […] Onset of clinical symptoms began at approximately day 12 in saline-treated mice and at approximately day 13 in mice treated with interferon alone. […] While preferred embodiments of the present invention have been shown and described herein, it will be obvious to those skilled in the art that such embodiments are provided by way of example only. Numerous variations, changes, and substitutions will now occur to those skilled in the art without departing from the invention. It should be understood that various alternatives to the embodiments of the invention described herein may be employed in practicing the invention. It is intended that the following claims define the scope of the invention and that methods and structures within the scope of these claims and their equivalents be covered thereby.

In assay [2] the test system is differentiating rat oligodendrocyte precursor cells (drOPCs). The assay can be described thus: FDA/PI (fluorescein-diacetate/propidium iodide) live/dead cell viability assay, IFN-γ challenge. It counts as cell-based. The source says:
Interferon-γ is an inflammatory cytokine that is thought to contribute to multiple sclerosis exacerbations, therefore, treatment of cultured cells of the oligodendrocyte lineage with interferon-γ provides a useful cellular model of MS-related inflammation. drOPCs were isolated and purified to >95% homogeneity from 6-7 day old Sprague-Dawley rat cortices by immunopanning as previously described (Chan et al. 2004 Neuron 43:2; 183-191). Briefly, rat cortices were extracted, diced, and digested with papain at 37° C. Cells were then triturated and resuspended in panning buffer containing insulin, then sequentially immunopanned at room temperature on three plates containing Ran-2, GalC, and O4 antibodies from hybridomal supernatant. The remaining O4^+GalC^− OPCs were removed from the plates with trypsin, resuspended in growth media, and seeded at 37° C. onto pDL-coated flasks to facilitate proliferation. Once sufficient numbers were reached, OPCs were split, plated in differentiation media at 200,000 cells/well, and allowed to differentiate for 24 hours. […] Following 48 hours of treatment, media was removed and the cells were incubated in FDA/PI (fluorescein-diacetate/propidium iodide) for 3 minutes, rinsed with 1×PBS, and imaged for live/dead cell quantification. In living cells, non-fluorescent FDA is converted into fluorescein, giving off a bright green fluorescence. PI is membrane impermeable and therefore excluded from live cells. Therefore, green cells indicate viable cells and red cells indicate non-viable cells. […] Treatment with 200 U/ml IFN-γ alone reduced the number of green cells and increased the number of red cells (C). […] FIG. 2B illustrates the quantitation of the experiment in FIG. 2a. […] Treatment with IFN-γ alone caused a roughly 40-50% decrease in cell survival. […] Data is presented as the mean+/−SEM for an N=3/group. (*p<0.05, **p<0.005)

Assay [3] relates to C57BL/6J mice with experimental autoimmune encephalitis (EAE). The assay can be described thus: Chronic EAE (MOG35-55), clinical scores and symptom onset. Format: in vivo, mouse.
Assay [4] concerns cultured rat cerebellar slices. In words: Myelin basic protein and toluidine blue staining of ex vivo cultured cerebellar slices treated with IFN-γ. It counts as cell-based. The note with it: seven days. The procedure:
Briefly, cerebellar sections were prepared from 6 day old Sprague-Dawley rat pups. […] Two to three sections were collected per well and grown in growth media with Fungizone. […] Sections were then stained for myelin-basic protein (A-E) and toluidine blue (F-H), used to visualize myelin and neuronal cytoarchitecture.

For assay [5], the system named is SJL mice with remitting/relapsing EAE. The assay can be described thus: Remitting/relapsing EAE (PLP139-151), clinical scores. Format: in vivo, mouse.
Assay [6] has as its system differentiating rat oligodendrocyte precursor cells (drOPCs). In words: TUNEL assay for IFN-γ induced apoptosis. Format: cell-based. As for the experimental part:
Cells were isolated as described previously and plated in chamber slides at 20,000 cells/chamber. Cells were then treated with the same IFN-γ and guanabenz protocol as described previously, then subjected to a TUNEL assay. […] FIG. 3B illustrates the quantitation of the experiment in FIG. 3a. […] Error bars represent mean±SEM for an N=3/group (*p<0.05, **p<0.005, ***p<0.0005)

[7] abbreviates: 5.0 μM guanabenz co-treatment with IFN-γ.
The mark [8] stands for this setting: interferon-beta 5,000 U/day/mouse alone.

As for `N=C(N)N/N=C/c1c(Cl)cccc1Cl` [guanabenz], the “onset of clinical symptoms” value in assay [1] (guanabenz 8 mg/kg alone) is roughly 18 days. The “cell viability (green/red cells, FDA/PI)” value was “partially restored viability” in assay [2] (1.25 μM guanabenz + 200 U/ml IFN-γ, 48 hours) and “partially restored viability” in assay [2] (2.5 μM guanabenz + 200 U/ml IFN-γ, 48 hours). Further, the “increase in cell survival compared to IFN-γ alone” value in assay [2] (1.25 μM guanabenz + IFN-γ) and in assay [2] (2.5 μM guanabenz + IFN-γ) was “roughly 25%” in each case. The “cell survival (FIG. 2B)” value in assay [2] (5.0 μM guanabenz + IFN-γ) is on record as “increased survival almost to control levels”. Moreover, in assay [2] (5.0 μM guanabenz alone, no IFN-γ, 48 hours), the “cell viability (green and red cells, FDA/PI)” value is listed as “does not impact cell viability”. The “percent survival (FIG. 2B)” value in assay [2] (guanabenz alone vs untreated control) was “comparable percent survival”. Moreover, the “clinical score by days post symptom onset” value in assay [3] (4 mg/kg/day) and in assay [3] (16 mg/kg/day) was “Neither 4 mg/kg/day nor 16 mg/kg/day caused a significant reduction in clinical score” throughout. Further, the average symptom onset in assay [3] (4 mg/kg/day IP from PID 7) is given as 19 days; in assay [3] (8 mg/kg/day IP from PID 7), “about 22 days”; in assay [3] (16 mg/kg/day IP from PID 7), “about 25 days”. In assay [3] (8 mg/kg/day), the “clinical score by days post symptom onset (symptom severity)” value is “significantly reduced symptom severity”. Further, the “delay in symptom onset” value in assay [3] (all guanabenz doses (4-16 mg/kg/day), IP daily from PID 7) is “significant delay in symptom onset”. Also, the “myelin fiber and axonal structure” value was “restored intact, long myelin fiber and axonal structure” in assay [4] (2.5 μM guanabenz + 100 U/ml IFN-γ); “restored intact, long myelin fiber and axonal structure” in assay [4] (5.0 μM guanabenz + 100 U/ml IFN-γ); “restored intact, long myelin fiber and axonal structure” in assay [4] (10.0 μM guanabenz + 100 U/ml IFN-γ). For the same molecule, the entries for the “average decrease in relapse severity” value in assay [5] (8 mg/kg IP daily from beginning of remission) and in assay [5] (16 mg/kg IP daily from onset of remission) were “about 50%” and “about 40%”, respectively. In addition, the “symptom severity during the remission phase, compared to vehicle” value in assay [5] (16 mg/kg/day IP) is “greater decrease in symptom severity during the remission phase”. For the same molecule, the “IFN-γ induced apoptosis (TUNEL, photomicrographs)” value in assay [6] (setting [7]) is “reduced IFN-γ induced apoptosis”. Besides, the “reduction of IFN-γ induced apoptosis compared to IFN-γ alone” value in assay [6] (setting [7]) was “about 87.5%”.

B1: IFN-γ: inflammatory cytokine used to challenge cultured oligodendrocyte lineage cells and cerebellar slices (protein, UniProt P01579 24-161, looked up)
Interferon gamma: QDPYVKEAENLKKYFNAGHSDVADNGTLFLGILKNWKEESDRKIMQSQIVSFYFKLFKNFKDDQSIQKSVETIKEDMNVKFFNSNKKKRDDFEKLTNYSVTDLNVQRKAIHELIQVMAELSPAAKTGKRKRSQMLFRG
Take B1: the “decrease in cell survival” value in assay [2] (IFN-γ alone, 200 U/ml, 48 hours) was 40-50%. Besides, the “increase in apoptosis compared to control cells” value in assay [6] (IFN-γ alone) is given as 2-3 fold.

B2: interferon-beta (protein, UniProt P01575 22-182, looked up)
Interferon beta: INYKQLQLQERTNIRKCQELLEQLNGKINLTYRADFKIPMEMTEKMQKSYTAFAIQEMLQNVFLVFRNNFSSTGWNETIVVRLLDELHQQTVFLKTVLEEKQEERLTWEMSSTALHLKSYYWRVQRYLKLMKYNSYAWMVVRAEIFRNFLIIRRLTRNFQN
As to B2, in assay [1] (setting [8]), the “delay of onset of clinical symptoms” value is recorded as “did not significantly delay onset of clinical symptoms” and the “onset of clinical symptoms” value is roughly 13 days.

These data come from patent publication US12310933B2, “Treatment of demyelinating disorders” (The University of Chicago, priority 2013, dated 2025).
